Measurements as given in PubChem BioAssay AID2060904 (Molecular Pharmacology Branch, DTP, NCI, 2025).

Test system: 349418-098-R-PDC complex spheroid viability
Experiment: Anticancer human tumor 349418-098-R-PDC patient-derived lung adenocarcinoma cell line growth inhibition [RAS]
Details: for IC50: curve of first compound; for viability, T/C: stronger effect = lower value
Outline: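 Multi-cell-type spheroids: tumor cells plus HUVEC endothelial cells and mesenchymal stem cells. RAS-pathway inhibitors were combined with targeted agents, each dosed in half-log steps down from clinical Cmax, or from 10 microM when Cmax was unknown.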

[1] = second compound 0.00316 µM, first compound 0.0316 µM
[2] = second compound 0.00316 µM, first compound 0.1 µM
[3] = second compound 0.00316 µM, first compound 0.316 µM
[4] = second compound 0.00316 µM, first compound 1 µM
[5] = second compound 0.00316 µM, first compound 3.16 µM
[6] = second compound 0.00316 µM, first compound 10 µM
[7] = second compound 0.01 µM, first compound 0.0316 µM
[8] = second compound 0.01 µM, first compound 0.1 µM
[9] = second compound 0.01 µM, first compound 0.316 µM
[10] = second compound 0.01 µM, first compound 1 µM
[11] = second compound 0.01 µM, first compound 3.16 µM
[12] = second compound 0.01 µM, first compound 10 µM
[13] = second compound 0.0316 µM, first compound 0.0316 µM
[14] = second compound 0.0316 µM, first compound 0.1 µM
[15] = second compound 0.0316 µM, first compound 0.316 µM
[16] = second compound 0.0316 µM, first compound 1 µM
[17] = second compound 0.0316 µM, first compound 3.16 µM
[18] = second compound 0.0316 µM, first compound 10 µM
[19] = second compound 0.1 µM, first compound 0.0316 µM
[20] = second compound 0.1 µM, first compound 0.1 µM
[21] = second compound 0.1 µM, first compound 0.316 µM
[22] = second compound 0.1 µM, first compound 1 µM
[23] = second compound 0.1 µM, first compound 3.16 µM
[24] = second compound 0.1 µM, first compound 10 µM
[25] = second compound 0.316 µM, first compound 0.0316 µM
[26] = second compound 0.316 µM, first compound 0.1 µM
[27] = second compound 0.316 µM, first compound 0.316 µM
[28] = second compound 0.316 µM, first compound 1 µM
[29] = second compound 0.316 µM, first compound 3.16 µM
[30] = second compound 0.316 µM, first compound 10 µM
[31] = second compound 1 µM, first compound 0.0316 µM
[32] = second compound 1 µM, first compound 0.1 µM
[33] = second compound 1 µM, first compound 0.316 µM
[34] = second compound 1 µM, first compound 1 µM
[35] = second compound 1 µM, first compound 3.16 µM
[36] = second compound 1 µM, first compound 10 µM
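Note: spheroids exposed to compound for seven days before viability readout.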

Cc1nc(N2CCC3(CC2)COC(C)C3N)c(CO)nc1Sc1ccnc(N)c1Cl (stereo unspecified) + C=CC(=O)N1CCN(c2nc(OCC3CCCN3C)nc3c(F)c(-c4nc(N)cc(C)c4C(F)(F)F)c(Cl)cc23)C(C)C1
IC50 (second compound 0.00316 µM): > 10 µM
IC50 (second compound 0.01 µM): > 10 µM
IC50 (second compound 0.0316 µM): > 10 µM
IC50 (second compound 0.1 µM): > 10 µM
IC50 (second compound 0.316 µM): > 10 µM
IC50 (second compound 1 µM): > 10 µM
viability, T/C [1]: 100%
viability, T/C [2]: 83.6%
viability, T/C [3]: 131%
viability, T/C [4]: 86.9%
viability, T/C [5]: 81.7%
viability, T/C [6]: 102%
viability, T/C [7]: 78.4%
viability, T/C [8]: 80.5%
viability, T/C [9]: 92.5%
viability, T/C [10]: 92.5%
viability, T/C [11]: 104%
viability, T/C [12]: 98.3%
viability, T/C [13]: 84.3%
viability, T/C [14]: 107%
viability, T/C [15]: 87.1%
viability, T/C [16]: 73.6%
viability, T/C [17]: 120%
viability, T/C [18]: 99%
viability, T/C [19]: 82.8%
viability, T/C [20]: 64.9%
viability, T/C [21]: 92.5%
viability, T/C [22]: 87.3%
viability, T/C [23]: 81.2%
viability, T/C [24]: 82.9%
viability, T/C [25]: 81%
viability, T/C [26]: 89.2%
viability, T/C [27]: 73.4%
viability, T/C [28]: 81.7%
viability, T/C [29]: 86%
viability, T/C [30]: 87.1%
viability, T/C [31]: 105%
viability, T/C [32]: 76.5%
viability, T/C [33]: 95.8%
viability, T/C [34]: 108%
viability, T/C [35]: 88.1%
viability, T/C [36]: 105%

NC1c2ccccc2OC12CCN(c1cnc3c(N4CCCc5ncccc54)n[nH]c3n1)CC2 (stereo unspecified) + C=CC(=O)N1CCN(c2nc(OCC3CCCN3C)nc3c(F)c(-c4nc(N)cc(C)c4C(F)(F)F)c(Cl)cc23)C(C)C1
IC50 (second compound 0.00316 µM): > 10 µM
IC50 (second compound 0.01 µM): > 10 µM
IC50 (second compound 0.0316 µM): > 10 µM
IC50 (second compound 0.1 µM): > 10 µM
IC50 (second compound 0.316 µM): > 10 µM
IC50 (second compound 1 µM): > 10 µM
viability, T/C [1]: 106%
viability, T/C [2]: 85.4%
viability, T/C [3]: 93.2%
viability, T/C [4]: 75.5%
viability, T/C [5]: 102%
viability, T/C [6]: 55.8%
viability, T/C [7]: 113%
viability, T/C [8]: 91.4%
viability, T/C [9]: 110%
viability, T/C [10]: 72.9%
viability, T/C [11]: 93.9%
viability, T/C [12]: 68.5%
viability, T/C [13]: 114%
viability, T/C [14]: 100%
viability, T/C [15]: 67%
viability, T/C [16]: 86%
viability, T/C [17]: 82.3%
viability, T/C [18]: 71.1%
viability, T/C [19]: 100%
viability, T/C [20]: 82.5%
viability, T/C [21]: 83.1%
viability, T/C [22]: 101%
viability, T/C [23]: 119%
viability, T/C [24]: 76.7%
viability, T/C [25]: 80%
viability, T/C [26]: 92.7%
viability, T/C [27]: 92.1%
viability, T/C [28]: 91.1%
viability, T/C [29]: 100%
viability, T/C [30]: 64%
viability, T/C [31]: 64.5%
viability, T/C [32]: 89.8%
viability, T/C [33]: 74%
viability, T/C [34]: 83.7%
viability, T/C [35]: 71.2%
viability, T/C [36]: 69.1%

Nc1ccn(C2OC(CO)C(O)C2(F)F)c(=O)n1 (stereo unspecified) + C=CC(=O)N1CCN(c2nc(OCC3CCCN3C)nc3c(F)c(-c4nc(N)cc(C)c4C(F)(F)F)c(Cl)cc23)C(C)C1
IC50 (second compound 0.00316 µM): < 0.00316 µM
IC50 (second compound 0.01 µM): < 0.00316 µM
IC50 (second compound 0.0316 µM): < 0.00316 µM
IC50 (second compound 0.1 µM): < 0.00316 µM
IC50 (second compound 0.316 µM): < 0.00316 µM
IC50 (second compound 1 µM): < 0.00316 µM
viability, T/C (second compound 0.00316 µM, first compound 0.00316 µM): 21.5%
viability, T/C (second compound 0.00316 µM, first compound 0.01 µM): 7.36%
viability, T/C [1]: 6.2%
viability, T/C [2]: 4.92%
viability, T/C [3]: 5.23%
viability, T/C [4]: 5.62%
viability, T/C (second compound 0.01 µM, first compound 0.00316 µM): 17%
viability, T/C (second compound 0.01 µM, first compound 0.01 µM): 6.27%
viability, T/C [7]: 5.91%
viability, T/C [8]: 5.09%
viability, T/C [9]: 5.47%
viability, T/C [10]: 5.2%
viability, T/C (second compound 0.0316 µM, first compound 0.00316 µM): 21.6%
viability, T/C (second compound 0.0316 µM, first compound 0.01 µM): 6.92%
viability, T/C [13]: 6.95%
viability, T/C [14]: 5.38%
viability, T/C [15]: 5.08%
viability, T/C [16]: 4.96%
viability, T/C (second compound 0.1 µM, first compound 0.00316 µM): 22.6%
viability, T/C (second compound 0.1 µM, first compound 0.01 µM): 6.48%
viability, T/C [19]: 4.56%
viability, T/C [20]: 4.77%
viability, T/C [21]: 4.97%
viability, T/C [22]: 4.84%
viability, T/C (second compound 0.316 µM, first compound 0.00316 µM): 19.2%
viability, T/C (second compound 0.316 µM, first compound 0.01 µM): 8.3%
viability, T/C [25]: 4.99%
viability, T/C [26]: 5.68%
viability, T/C [27]: 6.7%
viability, T/C [28]: 4.81%
viability, T/C (second compound 1 µM, first compound 0.00316 µM): 22.9%
viability, T/C (second compound 1 µM, first compound 0.01 µM): 6.24%
viability, T/C [31]: 4.96%
viability, T/C [32]: 6.96%
viability, T/C [33]: 7.44%
viability, T/C [34]: 5.82%
